# Experimental data: patent US9157906B2, “Phosphodiesterase activity and regulation of phosphodiesterase 1B-mediated signaling in brain” (THE ROCKEFELLER UNIVERSITY, priority 2001, dated 2015)
# Where a name gives a salt, the structure may show the parent alone.
# Legend:
# DARPP-32 at Thr34 = assay: Phosphorylation of DARPP-32 at Thr34 in striatal slices, immunoblot with phosphorylation state-specific antibodies; assay type: cell-based, mouse; settings: for increase in levels of phospho-Thr34 DARPP-32 and phospho-Ser845 GluR1: forskolin (10, unit not given)
# Procedure: (§1) Male PDE1B−/− (null) and WT mice (8-12 weeks of age) were decapitated. The brain was transferred rapidly to an ice-cold surface, blocked, and fixed to the cutting surface of a Vibratome (Ted Pella, Redding, Calif.) maintained at 4° C. The brain was submersed in cold, oxygenated (95% O2/5% CO2) Krebs' bicarbonate buffer of the following composition (in mM): 125 NaCl, 5KCl, 26 NaHCO3, 1.5 CaCl2, 1.5 MgSO4, and 10 glucose, pH 7.4. Coronal mouse brain sections (400 μm in thickness) were cut and pooled in cold buffer. Striatal or nucleus accumbens slices were cut from the coronal sections under a dissecting microscope. Individual slices were preincubated in fresh buffer for 15 min at 30° C.; the buffer was replaced, and preincubation continued for an additional 30 min. […] Slices were frozen immediately in liquid nitrogen and stored at −80° C. until assayed.
# Frozen slices were sonicated in homogenization buffer containing 1% SDS. Small aliquots of the homogenate were retained for protein determination by standard assays using bovine serum albumin as the standard. Equal amounts of protein (50 μg) were loaded onto 10% acrylamide gels, separated by SDS/PAGE, and transferred to nitrocellulose membranes by a method described by Tobin et al. (1979. Proc. Natl. Acad. Sci, USA 76:4350-4354). […]
# (§2) Chemiluminescence was detected by autoradiography and bands were quantified by analysis of scanned images using NIH Image 1.52 software. Because the linear range for quantitation of ECL signals by densitometry is limited, several film exposures were obtained for each set of samples to insure that the signals were within a density range that allowed for accurate quantitation. […]
# [1] = test system: D1-mediated phosphorylation; assay: D1-mediated phosphorylation in nucleus accumbens slices; assay type: cell-based, mouse; settings: D1 receptor agonist
# Procedure: Male PDE1B−/− (null) and WT mice (8-12 weeks of age) were decapitated. The brain was transferred rapidly to an ice-cold surface, blocked, and fixed to the cutting surface of a Vibratome (Ted Pella, Redding, Calif.) maintained at 4° C. The brain was submersed in cold, oxygenated (95% O2/5% CO2) Krebs' bicarbonate buffer of the following composition (in mM): 125 NaCl, 5KCl, 26 NaHCO3, 1.5 CaCl2, 1.5 MgSO4, and 10 glucose, pH 7.4. Coronal mouse brain sections (400 μm in thickness) were cut and pooled in cold buffer. Striatal or nucleus accumbens slices were cut from the coronal sections under a dissecting microscope. Individual slices were preincubated in fresh buffer for 15 min at 30° C.; the buffer was replaced, and preincubation continued for an additional 30 min. At the end of this second preincubation period the buffer was replaced with Krebs' buffer or buffer containing test substances for 5 min. Slices were frozen immediately in liquid nitrogen and stored at −80° C. until assayed. […]
# as §2
# [2] = test system: GluR1 AMPA receptor at Ser845; assay: Phosphorylation of GluR1 AMPA receptor at Ser845 in striatal slices, immunoblot with phosphorylation state-specific antibodies; assay type: cell-based, mouse; settings: striatal slices of PDE1B null mice; 10 μM, 10 minutes
# Procedure: as §1
# Frozen slices were sonicated in homogenization buffer containing 1% SDS. […]
# as §2
# PDE1B null mice = assay: Methamphetamine-stimulated horizontal locomotor activity (Digiscan apparatus); settings: 1 mg/kg subcutaneous
structure (smiles),measurement,setting,value
C=C[C@@]1(C)CC(=O)[C@]2(O)[C@@]3(C)[C@@H](O)CCC(C)(C)[C@@H]3[C@H](O)[C@H](OC(C)=O)[C@@]2(C)O1 [Forskolin],increase in levels of phospho-Thr34 DARPP-32 and phospho-Ser845 GluR1,DARPP-32 at Thr34; striatal slices from PDE1B null mice,65 fold
same,increase in levels of phospho-Thr34 DARPP-32 and phospho-Ser845 GluR1,DARPP-32 at Thr34; striatal slices from wild-type mice,21 fold
Oc1cc2c(c(Cl)c1O)CCNCC2c1ccccc1 (stereo not drawn) [SKF81297],D1-mediated phosphorylation in PDE1B null mice as compared to wild-type mice,[1],enhanced
same,increase for phospho-Ser845 as compared to controls,[2],13 fold
same,increase for phospho-Thr34 as compared to controls,"DARPP-32 at Thr34; striatal slices of PDE1B null mice, 10 μM, 10 minutes",15 fold
"CN[C@@H](C)Cc1ccccc1 [methamphetamine, d-methamphetamine hydrochloride]",duration of stimulated hyperactivity response after treatment,PDE1B null mice,90 min
